# From patent US12508323B2, “Method of treatment of colorectal, breast and lung cancer with metal containing immune agonist complexes” (HANGZHOU XINGAO BIOTECHNOLOGY CO., LTD., priority 2020, dated 2025)
# Experiments:
# Assay type in all cases: in vivo
# [1] = test system: breast cancer cell line 4T1; assay: Subcutaneous transplantation tumor model, 4T1 in BALB/C mice; conditions: i.p. 10 mg/kg (nanobody 200 μg/mouse) once a day for 21 days
# Procedure: Specific pathogen free (SPF)-grade BALB/C and C57BL/6 male mice, aged 7-8 weeks and weighing 20-22 g, were purchased from Shanghai Slac Laboratory Animal Co., Ltd (Laboratory animal quality certificate number: SCXK (Shanghai)2007-0005.
# Mice were injected intraperitoneally with the immune agonist or complex with a dose of 10 mg/kg, or each injected intraperitoneally with 200 μg of the nanobody.
# Administration route: intraperitoneal injection.
# Frequency: once a day for consecutive 21 days.
# Cancer cells were cultured, passaged, collected at the logarithmic phase of cells, and prepared into a cell suspension at a concentration of (1.0×10^7) per ml. Mice were injected with 0.2 ml of the cell suspension at the axilla of the right forelimb (cell number 2.0×10^6 cells/each), and were tumorigenic in about 8 days. These mice were randomly divided into 10 groups equally, namely, group A: negative control group (saline group), group B: positive control (cGAMP) group (dose: 10 mg/kg), group C: MncGAMP group (dose: 10 mg/kg), group D: anti-PD-L1 nanobody group, group E: anti-CD47 nanobody group, group F: anti-TfR1 nanobody group, group G: complex V group (dose: 10 mg/kg), group H: complex VI group (dose: 10 mg/kg), group I: complex IX group (dose: 10 mg/kg), and group J: complex VIII group (10 mg/kg). […]
# The data were expressed as ×±s and processed by SPSS10.0 software. […]
# [2] = test system: APP/PS1 transgenic AD model mice; assay: Morris water maze test in AD mice; conditions: 10 mg/kg i.p. once a day for 60 days, space exploration test
# Procedure: APP/PS1 transgenic AD model mice were purchased from Southern Model Biotechnology Co., Ltd., which were 4 months in age, and 24-26 g in weight. […]
# A circular pool was designed, which was 1 m in diameter, 50 cm in height, 30 cm deep, and white bottom. […] After the mice found the platform or could not find the platform within 90 seconds (the latency period was recorded as 90 seconds), they were guided to the platform by the experimenter and rested on the platform for 10 seconds before the next trial.
# 24 h after the end of the positioning navigation test, the platform was removed. Then the mice were put into the water from the third quadrant, and the swimming paths of the mice were recorded within 180 s. The residence time of the mice in the target quadrant (third quadrant) and the number of times they crossed the location of the original platform were recorded to observe the spatial orientation ability of the mice. […]
# [3] = test system: pro-inflammatory factors IL-1β and TNF-α; assay: Pro-inflammatory factors in brain tissues of AD mice (ELISA); conditions: 10 mg/kg i.p., two months of administration
# Procedure: To explore the effect of the above immune agonists and complexes thereof on neuroinflammation in the brain of AD mice, the content of pro-inflammatory factors in brain tissues of AD mice was determined by ELISA method. The content of pro-inflammatory factors IL-1β and TNF-α in brain tissues of AD mice were measured respectively.
# Fresh brain tissues of mice were taken and weighed, and the content of inflammatory factors IL-1β and TNF-α in brain tissues was determined by using the Cloud Clone ELISA kit. […] Therefore, the immune agonist-brain-targeted nanocarrier complexes were able to eliminate the chronic neuroinflammation present in the course of AD in mice.
structure (smiles),measurement,setting,value
"Nc1nc(=O)c2ncn(C3OC4COP(=O)(O)OC5C(COP(=O)(O)OC3C4O)OC(n3cnc4c(N)ncnc43)C5O)c2[nH]1 (centres unmarked) [cGAMP, 2′3′-cGAMP]",Average tumor weight,"[1]; n = 10, mean ± SD",0.862 ± 0.156 g
same,Average tumor inhibition rate (%),[1]; vs negative control tumor weight,61.9%
same,Percentage of time to cross the third quadrant platform in AD mice (%),[2],0.55 ± 0.10%
same,IL-1β,[3],46.18 ± 0.09 pg/mg
same,TNF-α,[3],35.52 ± 0.35 pg/mg
